Key:
[1] = Solubility of Compound A; type: physicochemical
[2] = Oral absorption window in the gastrointestinal tract; type: in vivo; conditions: given orally; upper part of the gastrointestinal tract

Solubility [1]: poorly soluble
Absorption window [2]: very narrow absorption window
SMILES: O=C(Cc1c(Cl)c[n+]([O-])cc1Cl)c1ccc(OC(F)F)c2c1OC1(CCS(=O)(=O)CC1)O2 [Compound A, 2-(3,5-Dichloro-1-oxido-pyridine-4-yl)-1-(7-difluoro-methoxy-2′,3′,5′,6-tetrahydro-spiro[1,3-benzodioxole-2,4-(4H)-thiopyran-1′,1′-dioxide]-4-yl)ethanone]
